Experimental data taken from ChEMBL document CHEMBL1201862, “PubChem BioAssay data set” (2004).
Each block holds one molecule with its values, some of them ahead of it. The source made the active and inactive calls.

Assays:
[1] = molecular target: Intestinal-type alkaline phosphatase (Mus musculus, UniProt P24822); test: PubChem AID 488785; type: functional
[2] = molecular target: T1, Alkaline phosphatase, tissue-nonspecific isozyme (Homo sapiens, UniProt P05186); test: TNAP enzyme inhibition by screening hits, dose response, selectivity assay for mouse IAP inhibitor project, biochemical, human TNAP, uHTS hits (AID 488906); type: functional
T1 sequence (P05186 whole entry): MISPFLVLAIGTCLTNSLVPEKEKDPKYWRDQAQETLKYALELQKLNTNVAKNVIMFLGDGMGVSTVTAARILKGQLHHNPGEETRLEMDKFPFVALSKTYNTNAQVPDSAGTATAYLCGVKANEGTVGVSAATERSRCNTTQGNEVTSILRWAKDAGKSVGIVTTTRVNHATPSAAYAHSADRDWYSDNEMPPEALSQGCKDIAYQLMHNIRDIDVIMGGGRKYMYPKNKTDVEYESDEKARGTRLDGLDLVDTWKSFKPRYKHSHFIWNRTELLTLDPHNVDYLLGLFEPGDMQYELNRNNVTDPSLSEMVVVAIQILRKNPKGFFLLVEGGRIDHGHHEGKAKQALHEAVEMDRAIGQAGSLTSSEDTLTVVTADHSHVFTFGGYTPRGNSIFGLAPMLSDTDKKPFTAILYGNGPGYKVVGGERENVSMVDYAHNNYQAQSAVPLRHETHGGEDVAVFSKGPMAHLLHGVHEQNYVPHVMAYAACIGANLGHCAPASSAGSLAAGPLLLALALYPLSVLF

[3] = molecular target: Intestinal-type alkaline phosphatase (Homo sapiens, UniProt P09923); test: inhibition of human intestinal alkaline phosphatase – biochemical, dose response (AID 488876); type: functional
Chain of Intestinal-type alkaline phosphatase (Homo sapiens, UniProt P09923) (P09923 whole entry): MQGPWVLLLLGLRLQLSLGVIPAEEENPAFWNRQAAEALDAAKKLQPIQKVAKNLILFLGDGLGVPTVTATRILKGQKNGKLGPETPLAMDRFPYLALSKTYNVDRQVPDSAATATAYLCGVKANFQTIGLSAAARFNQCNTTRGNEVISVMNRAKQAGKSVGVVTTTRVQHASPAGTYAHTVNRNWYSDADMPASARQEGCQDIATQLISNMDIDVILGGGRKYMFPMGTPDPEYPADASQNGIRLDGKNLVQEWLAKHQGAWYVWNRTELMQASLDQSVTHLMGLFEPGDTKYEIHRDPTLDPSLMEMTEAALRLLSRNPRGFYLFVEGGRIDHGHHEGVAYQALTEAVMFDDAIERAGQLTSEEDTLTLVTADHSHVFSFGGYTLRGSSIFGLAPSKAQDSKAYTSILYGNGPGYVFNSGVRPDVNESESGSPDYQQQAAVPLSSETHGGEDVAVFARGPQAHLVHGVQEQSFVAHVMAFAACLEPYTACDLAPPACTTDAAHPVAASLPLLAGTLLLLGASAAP

[4] = molecular target: T2, Delta-type opioid receptor (Homo sapiens, UniProt P41143); test: HTS Image-Based Screen for Antagonists of the DOR Receptor. [Related pubchem assays (depositor defined):AID1777, AID1785, AID1786, AID2133]; type: functional
T2 sequence (P41143 whole entry): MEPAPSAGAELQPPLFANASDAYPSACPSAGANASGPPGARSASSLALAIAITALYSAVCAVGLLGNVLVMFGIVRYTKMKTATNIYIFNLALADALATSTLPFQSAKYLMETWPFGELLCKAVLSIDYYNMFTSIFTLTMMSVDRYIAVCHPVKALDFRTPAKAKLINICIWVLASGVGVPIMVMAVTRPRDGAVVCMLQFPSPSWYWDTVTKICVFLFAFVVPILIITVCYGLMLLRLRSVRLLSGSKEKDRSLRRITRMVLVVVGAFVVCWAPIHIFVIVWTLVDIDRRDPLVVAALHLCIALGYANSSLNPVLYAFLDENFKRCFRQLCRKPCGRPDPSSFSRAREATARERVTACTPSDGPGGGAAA

Mu-type opioid receptor = Mu-type opioid receptor (Homo sapiens, UniProt P35372); test: HTS Image-Based Screen for Agonists of the MOR Receptor. [Related pubchem assays (depositor defined):AID1777, AID1785, AID1786, AID2133]; type: functional;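 further: imaging of beta-arrestin GFP recruitment into spots after receptor activation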
Chain of Mu-type opioid receptor (P35372 whole entry): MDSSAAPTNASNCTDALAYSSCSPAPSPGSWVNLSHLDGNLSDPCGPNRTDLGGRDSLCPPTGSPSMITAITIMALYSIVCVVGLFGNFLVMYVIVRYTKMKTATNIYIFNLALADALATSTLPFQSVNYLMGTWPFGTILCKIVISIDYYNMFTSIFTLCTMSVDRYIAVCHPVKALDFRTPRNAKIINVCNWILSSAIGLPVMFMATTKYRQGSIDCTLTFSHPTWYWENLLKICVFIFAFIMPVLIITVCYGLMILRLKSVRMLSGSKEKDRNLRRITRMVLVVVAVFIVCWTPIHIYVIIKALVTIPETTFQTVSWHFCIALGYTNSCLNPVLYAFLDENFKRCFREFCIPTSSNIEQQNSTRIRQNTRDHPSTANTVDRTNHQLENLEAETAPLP

[5] = molecular target: T2, Delta-type opioid receptor; test: HTS Image-Based Screen for Agonists of the DOR Receptor. [Related pubchem assays (depositor defined):AID1777, AID1786, AID2133]; type: functional
[6] = molecular target: T3, Kappa-type opioid receptor (Homo sapiens, UniProt P41145); type: functional
T3 sequence (P41145 whole entry): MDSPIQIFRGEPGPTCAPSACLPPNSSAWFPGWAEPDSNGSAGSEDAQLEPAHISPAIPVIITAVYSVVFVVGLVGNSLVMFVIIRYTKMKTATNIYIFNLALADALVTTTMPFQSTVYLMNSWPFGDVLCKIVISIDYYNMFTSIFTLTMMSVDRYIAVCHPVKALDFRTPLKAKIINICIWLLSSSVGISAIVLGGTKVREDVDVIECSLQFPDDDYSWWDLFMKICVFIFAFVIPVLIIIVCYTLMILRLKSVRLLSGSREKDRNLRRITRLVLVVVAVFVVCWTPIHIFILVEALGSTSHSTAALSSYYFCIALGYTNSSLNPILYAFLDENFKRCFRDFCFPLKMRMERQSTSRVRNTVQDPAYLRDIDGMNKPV

Beta-galactosidase = Beta-galactosidase (Escherichia coli, UniProt Q8VNN2); type: functional
[7] = molecular target: T3, Kappa-type opioid receptor; type: functional; remark: listed apart in the source
[8] = molecular target: T4, Tyrosine-protein phosphatase non-receptor type 22 (Homo sapiens, UniProt Q9Y2R2); test: SAR LYP1 Fluorescent Assay using pCAP substrate for In Vitro dose response studies - Set 2. [Related pubchem assays (depositor defined):AID1779, AID1784, AID2135, AID449727]; type: functional
T4 sequence (Q9Y2R2 whole entry): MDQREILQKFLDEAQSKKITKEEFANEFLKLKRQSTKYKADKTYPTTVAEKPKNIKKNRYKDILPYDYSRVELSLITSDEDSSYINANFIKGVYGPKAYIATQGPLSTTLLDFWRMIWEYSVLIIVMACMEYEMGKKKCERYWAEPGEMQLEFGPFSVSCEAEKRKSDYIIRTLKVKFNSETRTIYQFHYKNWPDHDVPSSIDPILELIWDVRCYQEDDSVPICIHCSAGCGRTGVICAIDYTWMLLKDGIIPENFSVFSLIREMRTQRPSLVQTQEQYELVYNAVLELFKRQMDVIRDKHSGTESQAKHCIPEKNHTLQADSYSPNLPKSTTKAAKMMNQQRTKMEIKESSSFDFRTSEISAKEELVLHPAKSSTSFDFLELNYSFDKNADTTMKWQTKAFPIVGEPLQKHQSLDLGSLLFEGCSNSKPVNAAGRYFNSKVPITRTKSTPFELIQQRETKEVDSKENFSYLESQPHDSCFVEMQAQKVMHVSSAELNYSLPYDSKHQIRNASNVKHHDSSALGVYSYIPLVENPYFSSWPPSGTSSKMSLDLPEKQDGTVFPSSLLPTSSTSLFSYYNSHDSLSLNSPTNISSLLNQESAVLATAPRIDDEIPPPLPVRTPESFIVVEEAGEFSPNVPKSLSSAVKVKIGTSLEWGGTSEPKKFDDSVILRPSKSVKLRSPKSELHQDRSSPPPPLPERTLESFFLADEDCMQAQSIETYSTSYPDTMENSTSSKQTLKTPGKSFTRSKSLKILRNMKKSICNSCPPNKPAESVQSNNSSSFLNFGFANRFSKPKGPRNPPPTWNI

[9] = molecular target: Tyrosine-protein phosphatase non-receptor type 12 (Homo sapiens, UniProt Q05209); test: SAR Selectivity Analysis of small molecule inhibitors of PEST using pCAP in a fluorescence assay. [Related pubchem assays (depositor defined):AID1779, AID1784, AID2135]; type: functional
Chain of Tyrosine-protein phosphatase non-receptor type 12 (Q05209 whole entry): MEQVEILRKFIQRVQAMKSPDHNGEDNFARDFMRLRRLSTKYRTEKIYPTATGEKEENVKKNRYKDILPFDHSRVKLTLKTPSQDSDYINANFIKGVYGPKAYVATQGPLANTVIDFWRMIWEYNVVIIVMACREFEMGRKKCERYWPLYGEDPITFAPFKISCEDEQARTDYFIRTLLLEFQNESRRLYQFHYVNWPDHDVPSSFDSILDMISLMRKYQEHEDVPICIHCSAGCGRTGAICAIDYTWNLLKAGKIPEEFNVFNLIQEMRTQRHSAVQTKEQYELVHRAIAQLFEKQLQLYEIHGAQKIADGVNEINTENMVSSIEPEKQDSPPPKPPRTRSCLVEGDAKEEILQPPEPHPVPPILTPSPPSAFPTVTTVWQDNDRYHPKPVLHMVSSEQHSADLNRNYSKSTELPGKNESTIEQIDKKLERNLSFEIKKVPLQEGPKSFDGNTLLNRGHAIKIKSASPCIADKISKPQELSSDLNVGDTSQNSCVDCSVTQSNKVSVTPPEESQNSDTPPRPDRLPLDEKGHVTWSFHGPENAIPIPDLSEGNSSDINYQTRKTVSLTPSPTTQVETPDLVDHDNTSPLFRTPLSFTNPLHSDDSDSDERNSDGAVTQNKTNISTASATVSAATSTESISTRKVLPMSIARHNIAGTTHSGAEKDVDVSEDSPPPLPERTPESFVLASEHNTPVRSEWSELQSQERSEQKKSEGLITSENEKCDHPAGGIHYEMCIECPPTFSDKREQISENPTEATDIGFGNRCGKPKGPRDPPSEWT

[10] = molecular target: T4, Tyrosine-protein phosphatase non-receptor type 22; test: SAR LYP1 Fluorescent Assay using OMFP substrate for In Vitro dose response studies - Set 3. [Related pubchem assays (depositor defined):AID1779, AID1784, AID2140, AID2686]; type: functional
[11] = molecular target: T5, Tyrosine-protein phosphatase non-receptor type 7 (Homo sapiens, UniProt P35236); test: HePTP (PTPN7) phosphatase inhibitor potency, SAR follow-up, biochemical, set 2 (AID 449736); type: functional
T5 sequence (P35236 whole entry): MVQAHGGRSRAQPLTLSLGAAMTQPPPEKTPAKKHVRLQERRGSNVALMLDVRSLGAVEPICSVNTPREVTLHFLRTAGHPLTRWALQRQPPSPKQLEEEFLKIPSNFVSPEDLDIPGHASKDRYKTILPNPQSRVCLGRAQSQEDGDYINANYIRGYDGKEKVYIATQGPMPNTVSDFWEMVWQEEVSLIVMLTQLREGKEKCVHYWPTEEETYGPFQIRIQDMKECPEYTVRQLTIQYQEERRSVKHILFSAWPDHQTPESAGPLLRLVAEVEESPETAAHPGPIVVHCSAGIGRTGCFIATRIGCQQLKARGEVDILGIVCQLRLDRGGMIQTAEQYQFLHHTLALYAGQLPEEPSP

[12] = molecular target: T4, Tyrosine-protein phosphatase non-receptor type 22; test: LYP (PTPN22) phosphatase inhibitor potency, SAR follow-up, biochemical, pCAP fluorogenic substrate, fluorescence, set 3 (AID 449727); type: functional
[13] = molecular target: T4, Tyrosine-protein phosphatase non-receptor type 22; test: SAR LYP1 Fluorescent Assay using OMFP substrate for In Vitro dose response studies - Set 2. [Related pubchem assays (depositor defined):AID1779, AID1784, AID2140, AID449726, AID488869]; type: functional
fMet-Leu-Phe receptor = fMet-Leu-Phe receptor (Homo sapiens, UniProt P21462); test: FPR ligands, dose response (AID 519); type: functional
Chain of fMet-Leu-Phe receptor (P21462 whole entry): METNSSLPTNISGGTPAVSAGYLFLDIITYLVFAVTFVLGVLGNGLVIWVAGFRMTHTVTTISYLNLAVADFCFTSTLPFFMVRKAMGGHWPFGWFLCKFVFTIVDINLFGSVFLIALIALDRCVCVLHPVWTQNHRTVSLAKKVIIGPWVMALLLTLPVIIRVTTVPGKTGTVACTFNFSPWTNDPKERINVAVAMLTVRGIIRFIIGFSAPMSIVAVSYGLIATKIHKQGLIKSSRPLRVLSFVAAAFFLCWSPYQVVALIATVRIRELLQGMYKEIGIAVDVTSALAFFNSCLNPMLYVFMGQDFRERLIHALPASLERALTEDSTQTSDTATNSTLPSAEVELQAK

Cytochrome P450 2D6 = Cytochrome P450 2D6 (Homo sapiens, UniProt P10635);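 further: CYP2D6 member of a cytochrome P450 panel assay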
Chain of Cytochrome P450 2D6 (P10635 whole entry): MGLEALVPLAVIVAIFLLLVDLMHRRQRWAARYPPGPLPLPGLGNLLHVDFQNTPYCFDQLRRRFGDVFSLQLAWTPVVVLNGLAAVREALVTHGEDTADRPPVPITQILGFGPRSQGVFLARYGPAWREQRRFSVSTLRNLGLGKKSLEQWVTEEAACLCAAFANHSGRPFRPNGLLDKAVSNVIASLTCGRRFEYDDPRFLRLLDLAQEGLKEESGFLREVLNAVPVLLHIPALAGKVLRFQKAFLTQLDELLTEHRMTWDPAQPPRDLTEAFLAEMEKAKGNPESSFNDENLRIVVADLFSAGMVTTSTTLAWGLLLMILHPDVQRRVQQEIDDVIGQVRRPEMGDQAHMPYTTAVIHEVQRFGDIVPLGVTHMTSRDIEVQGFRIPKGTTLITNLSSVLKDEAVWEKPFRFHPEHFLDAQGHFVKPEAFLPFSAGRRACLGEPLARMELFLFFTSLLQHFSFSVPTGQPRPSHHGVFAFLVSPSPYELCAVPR

Cytochrome P450 3A4 = Cytochrome P450 3A4 (Homo sapiens, UniProt P08684);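 further: CYP3A4 tested as one member of a cytochrome P450 panel screen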
Chain of Cytochrome P450 3A4 (P08684 whole entry): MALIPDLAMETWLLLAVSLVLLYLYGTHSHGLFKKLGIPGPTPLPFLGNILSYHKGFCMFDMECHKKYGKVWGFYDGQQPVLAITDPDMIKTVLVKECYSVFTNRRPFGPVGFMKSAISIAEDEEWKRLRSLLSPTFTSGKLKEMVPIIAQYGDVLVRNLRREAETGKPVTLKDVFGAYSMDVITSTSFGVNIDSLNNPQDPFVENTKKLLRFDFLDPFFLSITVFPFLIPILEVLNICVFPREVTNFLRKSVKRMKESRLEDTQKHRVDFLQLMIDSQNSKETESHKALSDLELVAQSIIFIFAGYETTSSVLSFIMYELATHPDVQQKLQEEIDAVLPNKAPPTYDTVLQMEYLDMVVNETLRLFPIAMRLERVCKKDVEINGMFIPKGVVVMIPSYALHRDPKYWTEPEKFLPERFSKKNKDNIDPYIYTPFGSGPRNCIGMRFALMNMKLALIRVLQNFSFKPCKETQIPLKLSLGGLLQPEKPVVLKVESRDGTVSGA

[14] = molecular target: T5, Tyrosine-protein phosphatase non-receptor type 7; type: functional
[15] = inhibitors of intracellular T. cruzi replication, confirmation, NIH3T3 host cells, beta-gal luminescence (AID 2044); type: functional, cell-based;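 further: intracellular parasites grown in NIH/3T3 mouse fibroblasts as host cells; luminescent beta-galactosidase reporter signal from transgenic T. cruzi replicating inside host cells; inhibitors lower the luminescence signal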
[16] = cytotoxicity toward NIH3T3 fibroblasts, dose response, counter-screen, cell-based, ATP luminescence, mouse fibroblasts (AID 2010); type: functional;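 further: cells exposed to compound for about 90 hours before reading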
[17] = molecular target: T4, Tyrosine-protein phosphatase non-receptor type 22; type: functional
[18] = molecular target: T4, Tyrosine-protein phosphatase non-receptor type 22; type: functional; remark: listed apart in the source

Chain of Intestinal-type alkaline phosphatase (Mus musculus, UniProt P24822) (P24822 whole entry): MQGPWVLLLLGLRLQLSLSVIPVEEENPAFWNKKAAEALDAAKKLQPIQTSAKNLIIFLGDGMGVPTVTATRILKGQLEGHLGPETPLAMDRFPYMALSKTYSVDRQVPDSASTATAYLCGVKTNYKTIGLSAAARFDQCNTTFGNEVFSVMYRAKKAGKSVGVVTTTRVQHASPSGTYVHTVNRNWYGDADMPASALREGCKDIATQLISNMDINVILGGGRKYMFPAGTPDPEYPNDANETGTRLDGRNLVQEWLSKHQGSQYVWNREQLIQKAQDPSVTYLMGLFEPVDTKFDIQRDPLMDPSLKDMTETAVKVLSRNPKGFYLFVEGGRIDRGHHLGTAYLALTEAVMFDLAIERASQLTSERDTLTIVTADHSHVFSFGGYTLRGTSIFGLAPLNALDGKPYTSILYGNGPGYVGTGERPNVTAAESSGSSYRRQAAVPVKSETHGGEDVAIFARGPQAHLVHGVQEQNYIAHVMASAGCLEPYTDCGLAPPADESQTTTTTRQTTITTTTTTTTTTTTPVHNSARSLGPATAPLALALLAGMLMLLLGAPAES

Structure (SMILES): COc1ccc(-c2csc(Cc3nc(O)cs3)n2)cc1
IC50 [4]: > 32 µM (inactive) | EC50 (Mu-type opioid receptor): > 32 µM (inactive) | EC50 [5]: > 32 µM (inactive) | IC50 [6]: 7.92 µM (active) | EC50 (Beta-galactosidase): > 31.5 µM (inactive) | IC50 [7]: > 32 µM

Structure (SMILES): CCCCOc1ccc(CN2CCCCC2)cc1
IC50 [14]: > 79.4 µM (inactive) | EC50 [15]: 1.2 µM (active) | EC50 [16]: > 30 µM (not active) | IC50 [17]: > 79.4 µM (inactive) | IC50 [18]: > 79.4 µM (inactive)

Second part, the molecule after the results:

IC50 [1]: 8.43 µM (active) | IC50 [2]: 85.4 µM (active) | IC50 [3]: > 100 µM (inactive)
Structure (SMILES): O=C(O)CNS(=O)(=O)c1ccc2c3c(cccc13)C(=O)N2

IC50 [8]: > 100 µM (inactive) | IC50 [9]: 66.3 µM (active) | IC50 [10]: > 100 µM (inactive) | IC50 [11]: > 100 µM (inactive) | IC50 [12]: > 100 µM (inactive) | IC50 [13]: > 100 µM (inactive)
Structure (SMILES): O=C(O)COc1ccc(C=NNC(=O)c2ccccc2Br)cc1

Ki (fMet-Leu-Phe receptor): 37 µM (inactive) | AC50 (Cytochrome P450 2D6): inconclusive | AC50 (Cytochrome P450 3A4): inconclusive
Structure (SMILES): Cc1c(C(=O)NC2CCCc3ccccc32)oc2ccc(S(=O)(=O)N3CCOCC3)cc12 (stereo not drawn)
